# B1: hHIN-1: hHIN-1 polypeptide (SEQ ID NO:1), 104 amino acids, expressed from the pCEP4-HIN-1 mammalian expression construct (protein, listed as Homo sapiens)
# chain: MKLAALLGLCVALSCSSARAFLVGSAKPVAQPVAALESAAEAGAGTLANPLGTLNPLKLLLSSLGIPVNHLIEGSQKCVAELGPQAVGAVKALKALLGALTVFG
# Experiments:
# [1] = test system: breast cancer cell lines with no detectable expression of hHIN-1; assay: Effect of DNA methyltransferase inhibitor on hHIN-1 mRNA levels (RT-PCR); type: cell-based, human; conditions: six breast cancer cell lines, 25 μM 5aza-C for three to ten days
# From the text: Cell lines and tissue. BT-20, BT-474, BT-549, Hs578T, MCF-7, MDA-MB-231, MDA-MB-468, MDA-MB-435S, SK-BR-3, T47D, UACC-812, UACC-893, and ZR-75-1 breast cancer cell lines were obtained from the American Type Culture Collection (ATCC; Manassas, Va.). SUM-44, SUM-52, SUM-102, SUM149, SUM-159, SUM-185, SUM-190, SUM-225, SUM-229, and SUM-1315 cell lines were a generous gift of Dr. Steve Ethier (University of Michigan Medical Center). The HCC1937 BRCA1 minus cell line was obtained from Dr. Gail Tomlinson (University of Texas Southwestern Medical Center). The 21MT1, 21MT2, 21NT, and 21PT cell lines were obtained from Dr. Arthur Pardee (Dana-Farber Cancer Institute). Cells were grown in media recommended by the ATCC or by the establishing investigators. However, 48 hours prior to RNA extraction, all cell lines were switched to DMEM/F12 medium supplemented with 5% FBS in order to minimize gene expression differences due to culture conditions. […]
# (§1) To test for the consequence of promoter methylation on hHIN-1 expression, the effect of a DNA methyltransferase inhibitor (5-aza-2′-deoxycytidine; “5aza-C”) on hHIN-1 mRNA levels was analyzed. […] The expression of hHIN-1 mRNA was determined by RT-PCR analysis, while the extent of promoter methylation was evaluated by sequence analysis of bisulfite treated genomic DNA.
# hHIN-1 promoter region = assay: Extent of hHIN-1 promoter methylation by sequence analysis of bisulfite treated genomic DNA; type: cell-based, human; conditions: ZR-75-1 cells treated with 25 μM 5aza-C vs not treated, bisulfite sequencing
# From the text: hHIN-1 methylation, loss of heterozygocity and mutation analysis. Searching the draft of the human genome sequence with the hHIN-1 cDNA sequence identified a genomic clone (CTB-36B8) containing the entire hHIN-1 gene, the proximal promoter region of which contained an apparent CpG island. To determine the location of methylated cytosines, genomic DNA was extracted from the cells, bisulfite treated and purified as previously described [Herman et al. (1998) Proc. Natl. Acad. Sci. USA 95:6870-6875]. PCR amplification was performed using the following primers designed to amplify the coding strand (nucleotides −345 to +72) of bisulfite treated DNA: forward primer-5′-[…]-3′ (SEQ ID NO:9) and reverse primer-5′-[…]-3′ (SEQ ID NO:10). […] PCR amplifications were performed as described above; PCR fragments were analyzed on 3% agarose gels.
# as §1
# [2] = test system: primary human bronchial epithelial cells; assay: Retinoic acid-induced mucinous differentiation, RT-PCR of hHIN-1, MUC2 and Tgase I mRNA; type: cell-based; conditions: 1 mM all-trans retinoic acid, 1 to 9 days
# Experimental: Primary cultures of human bronchial epithelial cells were purchased from Clonetics (Walkersville, Md.) and were cultured in the presence or absence of 1 mM all-trans retinoic acid essentially as previously described [Koo et al. (1999) Am. J. Respir. Cell Mol. Biol. 20:43-52].
# To test this hypothesis, the expression of hHIN-1 mRNA by RT-PCR during retinoic acid-induced mucinous differentiation of primary human bronchial epithelial cells was analyzed (FIG. 13). Primary human bronchial epithelial cells underwent squamous epithelial differentiation and expressed squamous cell markers such as transglutaminase I (Tgase I) in the absence of all-trans retinoic acid (FIG. 13). […] J. Respir. Cell Mol. Biol. 20:43-52]. […] Such expression kinetics are consistent with a role for HIN-1 as an inducer of this process.
# BT549 cells = assay: Colony assay after transfection with pCEP4 expression constructs; type: cell-based, human; conditions: stable transfectants selected with hygromycin for 2 weeks, crystal violet staining, compared to control pCEP4
# From the text: Generation of hHIN-1 mammalian expression constructs and recombinant adenoviruses. […] For the generation of a recombinant adenovirus the hHIN-1 cDNA was PCR amplified and subcloned into the Kpn I-Xho I site of the pAd-Track-CMV adenoviral vector followed by recombination and adenovirus generation using the Ad-Easy™(Quantum Biotechnologies, Montreal, Canada) system [He et al. (1998) Proc. Natl. Acad. Sci. USA 95:2509-2514].
# Colony assays, cell cycle analysis and western blot analysis. For colony assay experiments, cells in 100 mm plates were transfected with a mix of 42 μl of FuGene6 (Roche) and 21 μg of the indicated plasmid. 24 hours after transfection, 84% of the cells were plated into 2 T25 tissue culture flasks in medium without a selection drug. Twenty-four hours later the medium was replaced with selection medium containing hygromycin. Colonies were allowed to grow for 2 weeks after which they were visualized by crystal violet staining.
# In order to investigate the effect of constitutive hHIN-1 expression on mammary cell growth, a mammalian expression construct containing hHIN-1 polypeptide encoding cDNA (pCEP4-HIN-1) was transfected into various breast cancer cell lines. Stable transfectants were selected in the presence of hygromycin for 2 weeks.
molecule,measurement,setting,value
"Nc1ncn([C@H]2C[C@H](O)[C@@H](CO)O2)c(=O)n1 [5aza-C, 5-aza-2′-deoxycytidine]",expression of hHIN-1 mRNA,[1],re-expression of hHIN-1 mRNA in all six cell lines
same,extent of hHIN-1 promoter methylation,hHIN-1 promoter region,decrease in the extent of promoter methylation
"CC1=C(/C=C/C(C)=C/C=C/C(C)=C/C(=O)O)C(C)(C)CCC1 [retinoic acid, all-trans retinoic acid]",expression of hHIN-1 mRNA,"[2]; RT-PCR, following retinoic acid treatment",correlated with the loss of a squamous marker (Tgase I) and preceded the induction of a marker for mucinous differentiation (MUC2)
same,differentiation phenotype (MUC2 expression),[2]; air-interface culture,differentiated into mucinous cells
B1,colony numbers / cell growth,BT549 cells,dramatic decrease in colony numbers
